Laboratory results: the RepoRT retention time repository

assay: Waters ACQUITY UPLC BEH C18, 100 × 2.1 mm, 1.7 µm, 40 °C, 0.3 to 0.4 mL/min, estimated dead time 0.63 min; A: water + 0.1% formic acid; B: methanol + 0.1% formic acid; gradient (min/%B) 0/0.5 0.1/0.5 10/80 10.1/99.5 12/99.5; settings: stereoisomer not certain

| Compound | LC retention time [min] |
| --- | --- |
| O=C(O)CC(=O)OCC1OC(Oc2ccc3c(=O)c(-c4ccc(O)cc4)coc3c2)C(O)C(O)C1O (stereo not given) | 4.1 |
| CC(C)=CCCC(C)(O)C1CCC2(C)C1C(O)CC1C3(C)CCC(OC4OC(CO)C(O)C(O)C4OC4OC(CO)C(O)C(O)C4O)C(C)(C)C3CCC12C (stereo not given) | 8.2 |
| CC(C)=CCCC(C)(OC1OC(CO)C(O)C(O)C1O)C1CCC2(C)C1C(O)CC1C3(C)CCC(O)C(C)(C)C3CCC12C (stereo not given) | 9.51 |
| CC=C1CN2CCC34C(=C(C=O)C1CC23)Nc1c(O)cccc14 (stereo not given) | 3.38 |
| O=c1[nH]c(=O)c2[nH]cnc2[nH]1 | 1.75 |
| COc1cc(CC2COC(c3ccc(O)c(OC)c3)C2CO)ccc1O (stereo not given) | 4.96 |
| CC1CCC2(OC1O)OC1CC3C4CC=C5CC(OC6OC(CO)C(OC7OC(C)C(O)C(O)C7O)C(O)C6OC6OC(C)C(O)C(O)C6O)CCC5(C)C4CC(O)C3(C)C1C2C (stereo not given) | 5.61 |
| CCC=CCC=CC=CC(O)CCCCCCCC(=O)O (stereo not given) | 9.1 |
| O=c1cc(-c2ccc(O)cc2)oc2c(C3OCC(O)C(O)C3O)c(O)c(C3OCC(O)C(O)C3O)c(O)c12 (stereo not given) | 3.89 |
| COc1ccc(C2OCC3C(c4ccc(OC5OC(CO)C(O)C(O)C5O)c(OC)c4)OCC23)cc1OC (stereo not given) | 5.13 |
| CC=C1CC(C)C(O)(CO)C(=O)OCC2=CCN3CCC(OC1=O)C23 (stereo not given) | 3.23 |
| CC(=O)OC1CC(C)CNC12OC1CC3C4CCC5CC(OC6OC(CO)C(OC7OC(CO)C(O)C(OC8OCC(O)C(O)C8O)C7OC7OC(CO)C(O)C(O)C7O)C(O)C6O)CCC5(C)C4CCC3(C)C1C2C (stereo not given) | 4.78 |
| CC1(C)CCC2(C(=O)O)CCC3(C)C(=CCC4C5(C)CCC(OC6OC(C(=O)O)C(O)C(OC7OC(CO)C(O)C(O)C7O)C6O)C(C)(CO)C5CCC43C)C2C1 (stereo not given) | 7.55 |
| NC(=O)CCC(NC(=O)CCCc1ccccc1)C(=O)O (stereo not given) | 2.88 |
| Nc1[nH]c(=O)[nH]c(=O)c1OC1OC(CO)C(O)C(O)C1OC1OC(CO)C(O)C1O (stereo not given) | 2.16 |
| CC(C)CC(N)C(=O)NC(CC(C)C)C(=O)O (stereo not given) | 3.29 |
| COc1c(CC=C(C)C)c(O)cc2oc(-c3ccc(O)cc3O)cc12 | 8.35 |
| COc1cc2c3cc1Oc1c(OC)c(OC)cc4c1C(Cc1ccc(cc1)Oc1cc(ccc1O)CC3N(C)CC2)N(C)CC4 (stereo not given) | 3.76 |
| CC(CSCC(NC(=O)CCC(NCC1(O)OCC(O)C(O)C1O)C(=O)O)C(=O)NCC(=O)O)C(=O)O (stereo not given) | 2.4 |
| O=c1cc(-c2ccc(O)c(O)c2)oc2c(C3OC(CO)C(O)C(O)C3O)c(O)c(C3OCC(O)C(O)C3O)c(O)c12 (stereo not given) | 3.19 |

| Compound | LC retention time [min] |
| --- | --- |
| CN1CCCCC1c1ccc(-c2cccnc2)nc1 (stereo not given) | 2.37 |
| C=CC1C(OC2OC(CO)C(O)C(O)C2O)OC=C(C(=O)OC)C1CC1NC(C(=O)O)Cc2c1[nH]c1ccccc21 (stereo not given) | 4.13 |
| COc1ccc(-c2coc3cc(OC4OC(COC(=O)CC(=O)O)C(O)C(O)C4O)c(OC)cc3c2=O)cc1 (stereo not given) | 5.38 |
| O=c1ccc2cc(OC3OC(CO)C(O)C(O)C3O)c(O)cc2o1 (stereo not given) | 2.87 |
| CC1=C(O)C(=O)CC(OC2CC(C)(C)CC3C4=CCC5C6(C)CCC(OC7OC(C(=O)O)C(O)C(O)C7OC7OC(CO)C(O)C(O)C7OC7OC(C)C(O)C(O)C7O)C(C)(CO)C6CCC5(C)C4(C)CCC23C)O1 (stereo not given) | 7.68 |
| COc1ccc(-c2oc3cc(O)cc(O)c3c(=O)c2O)cc1 | 5.99 |
| COc1cc2ccc(=O)oc2cc1O | 4.24 |
| CC(C)=CCc1c(O)ccc2c1OC(c1ccc(O)cc1)CC2=O (stereo not given) | 8.93 |
| CCC(C)C(NC(=O)C([NH3+])C(C)C)C(=O)[O-] (stereo not given) | 2.88 |
| CCC12CCCN3CCc4c(n(c5ccccc45)C(=O)C1)C32 (stereo not given) | 4.65 |
| CC(C)=CCc1cc(-c2coc3cc(O)c(CC=C(C)C)c(O)c3c2=O)cc(O)c1O | 8.06 |
| O=C(CCc1ccc(O)cc1)c1c(O)c(C2OC(CO)C(O)C(O)C2O)c(O)c(C2OC(CO)C(O)C(O)C2O)c1O (stereo not given) | 4.01 |
| COc1ccc2c(c1)OC(OC1OC(CO)C(O)C(O)C1O)C(=O)N2O (stereo not given) | 3.5 |
| CCC(C)C(NCC1(O)OC(CO)C(O)C1O)C(=O)O (stereo not given) | 1.98 |
| NC(=O)CN1CC2CC(C1)c1cccc(=O)n1C2 (stereo not given) | 2.18 |
| CC1CCC(C(C)C2CCC3C4CC(=O)C5CC(O)CCC5(C)C4CCC23C)=NC1 (stereo not given) | 4.95 |
| CC(C)=CCC=C(C)C1CCC2(C)C1C(O)CC1C3(C)CCC(OC4OC(CO)C(O)C(O)C4O)C(C)(C)C3CCC12C (stereo not given) | 7.63 |
| COc1ccc(C2CC(=O)c3c(O)cc(OC4OC(COC5OC(C)C(O)C(O)C5O)C(O)C(O)C4O)cc3O2)cc1O (stereo not given) | 4.51 |
| Nc1ccc(C(=O)NC(CCC(=O)O)C(=O)O)cc1 (stereo not given) | 3.22 |
| Cc1ccc([N+](=O)[O-])cc1N | 2.34 |

Results, then the compound that gave them:

| LC retention time [min] | Compound |
| --- | --- |
| 3.94 | O=c1c2ccccc2nc2n1CCC2 |
| 4.31 | CC(CN)CCC1(O)OC2CC3C4CCC5CC(OC6OC(CO)C(OC7OC(CO)C(O)C(OC8OCC(O)C(O)C8O)C7OC7OC(CO)C(O)C(O)C7O)C(O)C6O)CCC5(C)C4CCC3(C)C2C1C (stereo not given) |
| 3.27 | O=c1c(-c2ccc(O)cc2)coc2c(C3OC(CO)C(O)C(O)C3O)c(O)ccc12 (stereo not given) |
| 4.05 | COc1cc(-c2cc(=O)c3c(O)cc(OC4OC(C(=O)O)C(O)C(O)C4O)cc3o2)cc(OC)c1OC1OC(CO)C(O)C(O)C1O (stereo not given) |
| 5.4 | CCC(O)(C(=O)O)c1cc2n(c(=O)c1COC(C)=O)Cc1cc3ccccc3nc1-2 (stereo not given) |
| 4.91 | Oc1ccc(C2Oc3cc(O)cc(O)c3CC2O)cc1 (stereo not given) |
| 3.07 | NC(N)=NCCCCNC(=O)C=Cc1ccc(O)cc1 |
| 3.3 | Cc1cc2[nH]c(=O)c(=O)n(CC(O)C(O)C(O)CO)c2cc1C (stereo not given) |
| 5.53 | O=C1NCCc2c1[nH]c1ccccc21 |
| 2.5 | CC(C)CC(NC(=O)CN)C(=O)O (stereo not given) |
| 4.42 | CC(=O)OCC1OC(Oc2c(-c3ccc(O)c(O)c3)oc3cc(O)cc(O)c3c2=O)C(O)C(O)C1O (stereo not given) |
| 2.49 | Oc1cc(O)c2c(c1)OC(c1cc(O)c(O)c(O)c1)C(O)C2 (stereo not given) |
| 4.65 | COC1OC2c3cc4c(cc3CCN(C)C2c2ccc3c(c21)OCO3)OCO4 (stereo not given) |
| 3.18 | CC1OC(Oc2cc3c(O)cc(O)cc3[o+]c2-c2ccc(O)c(O)c2)C(O)C(O)C1O (stereo not given) |
| 4.05 | OCC1OC(Oc2cc(O)cc(C=Cc3ccc(O)cc3)c2)C(O)C(O)C1O (stereo not given) |
| 5.35 | O=C1CC(c2ccc(O)c(O)c2)Oc2cc(O)cc(O)c21 (stereo not given) |
| 6.12 | COC(=O)C1C2CC3c4[nH]c5cc(OC)ccc5c4CCN3CC2CC(OC(=O)c2cc(OC)c(OC)c(OC)c2)C1OC (stereo not given) |
| 4.17 | O=c1c(OC2OCC(O)C(O)C2O)c(-c2ccc(O)c(O)c2)oc2cc(O)cc(O)c12 (stereo not given) |
| 5.62 | O=C(C=Cc1ccc(O)cc1)NCCCCN(CCCNC(=O)C=Cc1ccc(O)cc1)C(=O)C=Cc1ccc(O)cc1 |
| 8.82 | CCOC1OC(=O)c2cc3ccc4c(c3c(-c3ccc5c(c3)OCO5)c21)OCO4 (stereo not given) |
